For one series, the system named is HIV. In words: Viability, HIV replication and cytopathic effect in transduced T cells infected with HIV with GCV. Type of series: cell-based. From the text: FIG. 10 depicts photographic images of cells in accordance with experimental embodiments.
For series [1] the following is noted: herpes (CMV) treatment in HIV infected patients; cited from earlier work.

Each structure is given as a SMILES string.

For `Nc1nc(O)c2ncn(COC(CO)CO)c2n1` [Ganciclovir], the “viability of transduced T cells infected with HIV” value in the series on HIV is “increased viability”. Besides, the HIV replication result in the series with HIV (in the presence of GCV) is recorded as “diminished HIV replication”. The “toxicity or side effects” value in series [1] is recorded as “without significant toxicity or side effects”.

Values taken from patent US20170218397A1, “C[…] GENE THERAPY VECTOR FOR […] CELL MO[…] ANTI HIV GENE THERAPY” (Texas Tech University System, priority 2014, published 2017).
